18 molecules from patent publication US20120157471A1, “BENZIMIDAZOLE DERIVATIVES” (PFIZER INC., priority 2009, published 2012) can be followed below.

Counter-ions that a name gives are not always drawn.

One experiment has as its system Gli-Luc/MEF cells (Smo). The experiment is described as follows: Gli-Luc/MEF assay (Shh-stimulated luciferase reporter under the Gli response element). Type of experiment: cell-based, mouse. As to conditions: Mus musculus, MEF, 48 h. Here is the method:
The Gli-Luc/MEF cells obtained from Gli-Luc transgenic mice (Pfizer CoE, Genetically Modified Mice) contain a luciferase reporter gene under the control of the Gli response element. Luciferase activity stimulated with Sonic hedgehog ligand was inhibited by Smo inhibitors, and IC50 was subsequently calculated.
Plates were incubated at 37° C. and 5% CO2 overnight. On day two, cells were dosed with test compounds at a final concentration ranging from […] to 50 μM at a 3-time series dilution. Immediately after dosing cells with compounds, recombinant mouse sonic hedgehog (Shh, R&D Systems 464-SH) was added to a final concentration of 2 μg/mL. The cells were incubated with compounds and Shh for 48 hours at 37° C. and 5% CO2. Luciferase assays were conducted on Day 4 using the Bright-Glo Luciferase assay system (Promega E2620) according to Promega's protocol. Briefly, Bright-Glo luciferase reagent was made up and 25 uL were added to each well of the 384-well plate containing media. Plates were kept at room temperature for 5 minutes, and then read on an Envision Luminescence plate reader (Perkin-Elmer). IC50 of the inhibition was calculated by using GraphPad Prism.
For orientation: A reporter such as luciferase makes a cellular process visible.

Experiment [1] concerns the target T1, human Smo (amino acids 181-787) (Homo sapiens, UniProt Q99835).
T1 construct: expressed in transfected cells; membrane preparation
The experiment is described as follows: Smo radioligand competition binding assay (displacement of 3H-PF-03451358 from HEK293 membranes). As to conditions: for inhibition at 0.05 µM: 0.05 μM test compound, displacement of 3H-PF-03451358, read-out: SMO % inh. @ 0.05 μM; for IC50: radioligand competition binding. The procedure: Membranes were prepared from a stable cell line created in HEK293FlpIn-TetR cells (Invitrogen) using FIp recombinase-mediated insertion of the pSecTag-FRT/V5-His vector containing a cDNA encoding amino acids 181-787 of human Smo fused to the murine lgk leader sequence to produce a cell surface expressed Smo 181-781 protein. Hygromycin-resistant clones were obtained and stained for LacZ expression (no expression indicates a correct knock-in of my fusion cDNA). LacZ-negative cells were analyzed for binding tritiated Smo antagonist PF-03451358. For membrane preparation, the HEK293 cells expressing Smo 181-781 were grown to 90% confluence in nine to fifteen 245 mm×245 mm×22 mm dishes, washed with Dulbecco's PBS (15 ml per dish) and harvested via scraping in 10 ml of DPBS. The cells were collected and centrifuged at 1500 rpm (400×g) for 10 min at 4° C. The cell pellets were re-suspended in 40 ml of cold DPBS and washed by centrifugation at 2300 rpm (950×g max) for 10 minutes at 4° C. The supernatant was aspirated and the cell pellet was snap frozen in a methanol/dry ice bath and stored at −70° C. For membrane preparation, 15 ml of Membrane Preparation Buffer (50 mM Tris-HCl pH 7.5, 250 mM sucrose with Roche complete protease cocktail tablets) is added to the tube containing the cell pellet, then cells are rapidly thawed, and homogenized using an Ultra-Turrax T8 (IKA Labortechnik) set on “6” for 15 seconds for 5-6 times in icy water bath. This homogenate was diluted up to 50 ml using Membrane Preparation Buffer and centrifuged at 35,000 rpm in a Beckman Ti45 rotor (140,000×g) for 35 minutes at 4° C. followed by aspiration of the supernatant and re-suspension of the pellet in 5 ml of Assay Buffer (50 mM Tris-HCl pH 7.5, 100 mM NaCl, 25 mM MgCl2, 1 mM EDTA, and 0.1% protease free bovine serum albumin). The re-suspended pellet is then homogenized in a glass tissue grinder. The re-suspended membranes are aliquoted (0.5 ml aliquots), snap frozen and stored at −70° C. Total protein in the membrane preparation is determined using the Pierce BCA protein assay (Pierce Chemical).
For the binding competition assay, 100 μl of Assay Buffer is added to all the wells of a 96 well GF/B filter plate (Millipore MultiScreen-HTS-FB cat# MSFBN6B50) for 10 minutes to pre-wet the filter prior to evacuation of the buffer (8 inches Hg for 8 seconds). To the pre-wet wells is added: 20 μl of Assay Buffer, 10 μl diluted test agent, 20 μl of ^3H-PF-3451358 (15 nM stock solution), and 50 μl of membrane preparation (40 μg total protein per well). The plates are sealed and mixed at room temperature for 5 min, incubated at room temperature for 2 hours, then washed 5 times with 100 μl/each of wash buffer and vacuum dried for 8 seconds at 8 inch Hg. The plate is then dried for one hour in a 60° C. oven prior to the addition of 45 μl of Microscint 20 (Packard, #6013621) to each well and incubation at RT for 30 minutes to 1 hour. The plate is counted in a TopCount scintillation counter (Perkin Elmer).
Data analysis uses Excel for % Inhibition and Graphpad Prism for IC50 calculation. Total binding (TB, in the absence of inhibitors)=average of ^3H PF-03451358 3 nM+SMO membrane (40 μg/wells (approx 5000-7000 CPM). Non-specific binding (NSB)=average of ^3H PF-03451358 (3 nM)+cold PF-03451358 (30 μM)+SMO membrane (approx 600-1200 CPM). Specific binding (SB)=(total binding−non-specific binding). % Inhibition=[1−(compound Specific binding/control Specific binding)]×100%. IC50 is calculated by fitting the data to the four parameter sigmoidal dose-response curve (variable slope) Y=Bottom+(Top-Bottom)/(1+10̂((LogEC50−X)*HillSlope)). X is the logarithm of the inhibitor concentration. Y is the response; Y starts at Bottom and goes to Top with a sigmoid shape.
In general terms: Loss of bound radioactivity is the signal in a displacement assay; it reports binding, not function.

T1 sequence (Q99835 181-787): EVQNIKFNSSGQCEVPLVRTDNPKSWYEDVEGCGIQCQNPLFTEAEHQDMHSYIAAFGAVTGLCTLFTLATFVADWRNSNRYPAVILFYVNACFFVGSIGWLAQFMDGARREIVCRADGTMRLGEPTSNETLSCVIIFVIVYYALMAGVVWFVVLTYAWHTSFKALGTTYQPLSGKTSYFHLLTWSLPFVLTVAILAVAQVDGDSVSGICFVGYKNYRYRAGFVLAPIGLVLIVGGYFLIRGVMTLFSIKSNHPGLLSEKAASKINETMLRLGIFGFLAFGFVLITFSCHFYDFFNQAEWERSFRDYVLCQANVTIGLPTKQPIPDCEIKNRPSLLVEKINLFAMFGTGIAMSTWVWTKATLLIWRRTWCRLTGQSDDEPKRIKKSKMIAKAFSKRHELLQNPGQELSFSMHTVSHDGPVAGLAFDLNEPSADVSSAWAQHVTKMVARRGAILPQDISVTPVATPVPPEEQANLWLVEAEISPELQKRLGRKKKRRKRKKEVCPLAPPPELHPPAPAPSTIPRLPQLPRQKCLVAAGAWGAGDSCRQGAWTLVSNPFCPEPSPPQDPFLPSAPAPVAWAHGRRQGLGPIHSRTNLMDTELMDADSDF

Consider `CC1CC2(CCN1c1cc(-c3nc4ccccc4n3C)c(Cl)cn1)CNC(=O)C2` (stereo in doubt) [Example A-48, (5R,7S)-8-[5-chloro-4-(1-methyl-1H-benzimidazol-2-yl)pyridin-2-yl]-7-methyl-2,8-diazaspiro[4.5]decan-3-one], for which, in the experiment on Gli-Luc/MEF cells (Smo), the midpoint of inhibition, the IC50, lay at 7 nM. In experiment [1], the inhibition at 0.05 µM stood at 100% and the IC50 (commonly the midpoint of a concentration-inhibition curve) amounted to 7 nM.

Consider `Cn1c(-c2cc(N3C[C@H]4CNS(=O)(=O)[C@H]4C3)ncc2Cl)nc2ccccc21` (stereo in doubt) [Example A-55, 2-{5-chloro-2-[(3aS,6aR)-1,1-dioxidohexahydro-5H-pyrrolo[3,4-d]isothiazol-5-yl]pyridin-4-yl}-1-methyl-1H-benzimidazole], for which 10 nM corresponded to half-maximal inhibition in the experiment on Gli-Luc/MEF cells (Smo) (IC50). In experiment [1], the inhibition at 0.05 µM is 98% and the IC50 was found to be 26 nM.

Regarding `Cn1c(-c2cc(N3CCN4C[C@H](O)CC4C3)ncc2Cl)nc2ccccc21` (stereo in doubt) [Example A-60, (7R,8aS)-2-[5-chloro-4-(1-methyl-1H-benzimidazol-2-yl)pyridin-2-yl]octahydropyrrolo[1,2-a]pyrazin-7-ol], the IC50 with Gli-Luc/MEF cells (Smo) came out at 22 nM; in experiment [1], 27 nM. Besides, the inhibition at 0.05 µM in experiment [1] was 96%.

The molecule `Cn1c(-c2cc(N3CCN4C[C@H](O)CC4C3)ncc2Cl)nc2ccccc21` (stereo in doubt) [Example A-92, (7R,8aR)-2-[5-chloro-4-(1-methyl-1H-benzimidazol-2-yl)pyridin-2-yl]octahydropyrrolo[1,2-a]pyrazin-7-ol] registered an IC50 in the experiment on Gli-Luc/MEF cells (Smo) of 46 nM. In experiment [1], the inhibition at 0.05 µM turned out to be 88% and the IC50 was 79 nM.

Consider `Cn1c(-c2cc(N3C[C@@H](CO)C(C)(CO)C3)ncc2Cl)nc2ccccc21` (stereo in doubt) [Example A-95, {(3R,4S)-1-[5-chloro-4-(1-methyl-1H-benzimidazol-2-yl)pyridin-2-yl]-3-methylpyrrolidine-3,4-diyl}dimethanol], for which the IC50 in the experiment on Gli-Luc/MEF cells (Smo) was determined as 38 nM; in experiment [1], 70 nM. Further, in experiment [1], the inhibition at 0.05 µM worked out at 86%.

In the experiment on Gli-Luc/MEF cells (Smo), `CC(=O)NC1CCN(c2cc(-c3nc4ccccc4n3C)c(Cl)cn2)C1` (stereo in doubt) [Example A-116, N-{(3R)-1-[5-chloro-4-(1-methyl-1H-benzimidazol-2-yl)pyridin-2-yl]pyrrolidin-3-yl}acetamide] displayed an IC50 of 86 nM. In experiment [1], the inhibition at 0.05 µM is 68%.

`CN(C)C(=O)COC1CCN(c2cc(-c3nc4ccccc4n3C)c(Cl)cn2)C1` (stereo in doubt) [Example A-126, 2-({(3R)-1-[5-chloro-4-(1-methyl-1H-benzimidazol-2-yl)pyridin-2-yl]pyrrolidin-3-yl}oxy)-N,N-dimethylacetamide] had an IC50 with Gli-Luc/MEF cells (Smo) of 109 nM. The inhibition at 0.05 µM in experiment [1] was 57%.

In turn, `CC(=O)N1CCN(c2cc(-c3nc4ccccc4n3C)c(Cl)cn2)CC1` [Example A-1, 2-[2-(4-acetylpiperazin-1-yl)-5-chloropyridin-4-yl]-1-methyl-1H-benzimidazole] returned an IC50 with Gli-Luc/MEF cells (Smo) of 4 nM. Further, in experiment [1], the inhibition at 0.05 µM was 90% and the IC50 was determined as 15.2 nM.

Consider `COC(=O)N1CCN(c2cc(-c3nc4ccccc4n3C)c(Cl)cn2)CC1` [Example A-2, methyl 4-[5-chloro-4-(1-methyl-1H-benzimidazol-2-yl)pyridin-2-yl]piperazine-1-carboxylate], for which the IC50 in the experiment on Gli-Luc/MEF cells (Smo) is 3 nM. Further, in experiment [1], the inhibition at 0.05 µM stood at 87% and the IC50 turned out to be 17.2 nM.

As for `CNC(=O)N1CCN(c2cc(-c3nc4ccccc4n3C)c(Cl)cn2)CC1` [Example A-3, 4-[5-chloro-4-(1-methyl-1H-benzimidazol-2-yl)pyridin-2-yl]-N-methylpiperazine-1-carboxamide], the midpoint of inhibition in the experiment on Gli-Luc/MEF cells (Smo), the IC50, lay at 9 nM. In experiment [1], the inhibition at 0.05 µM was 93% and the IC50 was 14.1 nM.

`Cn1c(-c2cc(N3CCN(S(C)(=O)=O)CC3)ncc2Cl)nc2ccccc21` [Example A-4, 2-{5-chloro-2-[4-(methylsulfonyl)piperazin-1-yl]pyridin-4-yl}-1-methyl-1H-benzimidazole] returned an IC50 in the experiment on Gli-Luc/MEF cells (Smo) of 3 nM. Further, in experiment [1], the inhibition at 0.05 µM came to 91% and the IC50 is 29.2 nM.

With `Cn1c(-c2cc(N3CCC(NS(C)(=O)=O)CC3)ncc2Cl)nc2ccccc21` [Example A-5, N-{1-[5-chloro-4-(1-methyl-1H-benzimidazol-2-yl)pyridin-2-yl]piperidin-4-yl}methanesulfonamide], half-maximal inhibition in the experiment with Gli-Luc/MEF cells (Smo) (IC50) was put at 0.6 nM. Besides, in experiment [1], the inhibition at 0.05 µM was 97% and the half-maximal inhibitory concentration (IC50) worked out at 8 nM.

As to `CN(C1CCN(c2cc(-c3nc4ccccc4n3C)c(Cl)cn2)CC1)S(C)(=O)=O` [Example A-6, N-{1-[5-chloro-4-(1-methyl-1H-benzimidazol-2-yl)pyridin-2-yl]piperidin-4-yl}-N-methylmethanesulfonamide], in the experiment with Gli-Luc/MEF cells (Smo), the IC50 is 3 nM. Moreover, in experiment [1], the inhibition at 0.05 µM came to 96%.

For `CN(CCN)c1cc(-c2nc3ccccc3n2C)c(Cl)cn1` [Example A-184, N-[5-chloro-4-(1-methyl-1H-benzimidazol-2-yl)pyridin-2-yl]-N-methylethane-1,2-diamine], in experiment [1], the inhibition at 0.05 µM came out at 50% and the IC50 stood at 342 nM.

As to `Cn1c(-c2nc(N3CCNCC3)ccc2Cl)nc2ccccc21` [Example B-1, 2-(3-chloro-6-piperazin-1-ylpyridin-2-yl)-1-methyl-1H-benzimidazole formate salt], in experiment [1], the inhibition at 0.05 µM amounted to 59%.

Consider `CC(=O)N1CCN(c2nccc(-c3nc4ccccc4n3C)n2)CC1` [Example C-2, 2-[2-(4-Acetylpiperazin-1-yl)pyrimidin-4-yl]-1-methyl-1H-benzimidazole], for which, in experiment [1], the inhibition at 0.05 µM came to 65% and the IC50 was determined as 447 nM.

`Cn1c(-c2ccnc(N3CCN(S(C)(=O)=O)CC3)n2)nc2ccccc21` [Example C-4, 1-Methyl-2-{2-[4-(methylsulfonyl)piperazin-1-yl]pyrimidin-4-yl}-1H-benzimidazole]: the inhibition at 0.05 µM in experiment [1] is 45%.

As for `COC(=O)N1CCN(c2nccc(-c3nc4ccccc4n3C)n2)CC1` [Example C-6, Methyl 4-[4-(1-methyl-1H-benzimidazol-2-yl)pyrimidin-2-yl]piperazine-1-carboxylate], the inhibition at 0.05 µM in experiment [1] is 27%.
